Assay: Plasma pharmacokinetics of COMPOUND I in Phase I and II studies
Type: in vivo, patients

inter-subject coefficient of variation (CV %) for AUC (500 mg/day on a 5 days on/2 days off dosing schedule): around 50%
plasma pharmacokinetic (all doses tested from 25 to 600 mg, continuous daily dosing regimen): time dependent
exposure of COMPOUND I with dose (doses of 400 mg/day and above, continuous daily dosing regimen): prolonged over-proportional exposure
Structure (SMILES): CN1CCN(c2ccc3nc(-c4c(N)c5c(F)cccc5[nH]c4=O)[nH]c3c2)CC1 [COMPOUND I, 4-amino-5-fluoro-3-[6-(4-methylpiperazin-1-yl)-1H-benzimidazol-2-yl]-1H-quinolin-2-one]

Reference: patent US20140221389A1, “USE OF 4-AMINO-5-FLUORO-3-[6-(4-METHYLPIPERAZIN-1-YL)-1H-BENZIMIDAZOL-2-YL]-1H-QUINOLIN-2-ONE IN THE TREATMENT OF CANCER IN MODERATE HEPATIC IMPAIRED PATIENTS” (Novartis AG, priority 2011, published 2014)
